# From ChEMBL document CHEMBL3885881, “DrugMatrix”
# Species: Rattus norvegicus
# Assay: DrugMatrix - Regimen: Daily Repeat
# Format: toxicity, organism-based, Sprague-Dawley
# Parameters: regimen Daily Repeat, gender Male, age 6-8 weeks
# Conditions: in vivo, iv, vehicle 100 % SALINE; for ABSOLUTE BASOPHIL / ABSOLUTE EOSINOPHIL / ABSOLUTE LYMPHOCYTE / ABSOLUTE MONOCYTE / ABSOLUTE SEGMENTED NEUTROPHIL / BASOPHIL / EOSINOPHIL / ERYTHROCYTE COUNT / HEMATOCRIT / HEMOGLOBIN / LEUKOCYTE COUNT / LYMPHOCYTE / MEAN CORPUSCULAR HEMOGLOBIN / MEAN CORPUSCULAR HEMOGLOBIN CONCENTRATION / MEAN CORPUSCULAR VOLUME / MONOCYTE / NUCLEATED RED BLOOD CELLS / PLATELET COUNT: tissue Blood; for ALANINE AMINOTRANSFERASE / ALBUMIN / ALKALINE PHOSPHATASE / ASPARTATE AMINOTRANSFERASE / BLOOD UREA NITROGEN / CARBON DIOXIDE / CHLORIDE / CHOLESTEROL / CREATINE PHOSPHOKINASE / CREATININE / GLUCOSE / LACTATE DEHYDROGENASE / PHOSPHORUS / POTASSIUM / SODIUM / TOTAL BILIRUBIN / TOTAL PROTEIN / URIC ACID: tissue Plasma
# [1] = 25 mg/kg, 72 h, dose level Low, time 3 day
# [2] = 25 mg/kg, 120 h, dose level Low, time 5 day
# [3] = 160 mg/kg, 72 h, dose level High, time 3 day
# [4] = 160 mg/kg, 120 h, dose level High, time 5 day
smiles,measurement,setting,value
CN[C@H](CC(C)C)C(=O)N[C@H]1C(=O)N[C@@H](CC(N)=O)C(=O)N[C@H]2C(=O)N[C@H]3C(=O)N[C@H](C(=O)N[C@H](C(=O)O)c4cc(O)cc(O)c4-c4cc3ccc4O)[C@H](O)c3ccc(c(Cl)c3)Oc3cc2cc(c3O[C@@H]2O[C@H](CO)[C@@H](O)[C@H](O)[C@H]2O[C@H]2C[C@](C)(N)[C@H](O)[C@H](C)O2)Oc2ccc(cc2Cl)[C@H]1O [VANCOMYCIN],ABSOLUTE BASOPHIL,[1],0 CELLS/uL
same,ABSOLUTE EOSINOPHIL,[1],39.33 CELLS/uL
same,ABSOLUTE LYMPHOCYTE,[1],11516.33 CELLS/uL
same,ABSOLUTE MONOCYTE,[1],255.67 CELLS/uL
same,ABSOLUTE SEGMENTED NEUTROPHIL,[1],1222 CELLS/uL
same,BASOPHIL,[1],0%
same,EOSINOPHIL,[1],0.33%
same,ERYTHROCYTE COUNT,[1],5.26 x10E6/uL
same,HEMATOCRIT,[1],34.27%
same,HEMOGLOBIN,[1],13.57 G/DL
same,LEUKOCYTE COUNT,[1],13.03 x10E3/uL
same,LYMPHOCYTE,[1],88.33%
same,MEAN CORPUSCULAR HEMOGLOBIN,[1],25.87 pg
same,MEAN CORPUSCULAR HEMOGLOBIN CONCENTRATION,[1],39.63 G/DL
same,MEAN CORPUSCULAR VOLUME,[1],65.13 fL
same,MONOCYTE,[1],2%
same,NUCLEATED RED BLOOD CELLS,[1],0 /100WBC
same,PLATELET COUNT,[1],1239 x10E3/uL
same,ALANINE AMINOTRANSFERASE,[1],49 u/L
same,ALBUMIN,[1],4.13 G/DL
same,ALKALINE PHOSPHATASE,[1],403 u/L
same,ASPARTATE AMINOTRANSFERASE,[1],88 u/L
same,BLOOD UREA NITROGEN,[1],17.67 mg/dL
same,CARBON DIOXIDE,[1],28 mmol/L
same,CHLORIDE,[1],100.67 MEQ/L
same,CHOLESTEROL,[1],67.33 mg/dL
same,CREATINE PHOSPHOKINASE,[1],365.67 u/L
same,CREATININE,[1],0.22 mg/dL
same,GLUCOSE,[1],144 mg/dL
same,LACTATE DEHYDROGENASE,[1],331.67 u/L
same,PHOSPHORUS,[1],12.13 mg/dL
same,POTASSIUM,[1],6.95 MEQ/L
same,SODIUM,[1],142.77 MEQ/L
same,TOTAL BILIRUBIN,[1],0.23 mg/dL
same,TOTAL PROTEIN,[1],5.77 G/DL
same,URIC ACID,[1],1.33 mg/dL
same,ABSOLUTE BASOPHIL,[2],0 CELLS/uL
same,ABSOLUTE EOSINOPHIL,[2],41.33 CELLS/uL
same,ABSOLUTE LYMPHOCYTE,[2],15492.33 CELLS/uL
same,ABSOLUTE MONOCYTE,[2],306.33 CELLS/uL
same,ABSOLUTE SEGMENTED NEUTROPHIL,[2],660 CELLS/uL
same,BASOPHIL,[2],0%
same,EOSINOPHIL,[2],0.33%
same,ERYTHROCYTE COUNT,[2],5.54 x10E6/uL
same,HEMATOCRIT,[2],34.03%
same,HEMOGLOBIN,[2],13.7 G/DL
same,LEUKOCYTE COUNT,[2],16.5 x10E3/uL
same,LYMPHOCYTE,[2],94%
same,MEAN CORPUSCULAR HEMOGLOBIN,[2],24.73 pg
same,MEAN CORPUSCULAR HEMOGLOBIN CONCENTRATION,[2],40.23 G/DL
same,MEAN CORPUSCULAR VOLUME,[2],61.4 fL
same,MONOCYTE,[2],1.67%
same,NUCLEATED RED BLOOD CELLS,[2],0.33 /100WBC
same,PLATELET COUNT,[2],1313.33 x10E3/uL
same,ALANINE AMINOTRANSFERASE,[2],58.33 u/L
same,ALBUMIN,[2],4.03 G/DL
same,ALKALINE PHOSPHATASE,[2],397.67 u/L
same,ASPARTATE AMINOTRANSFERASE,[2],92.67 u/L
same,BLOOD UREA NITROGEN,[2],17.67 mg/dL
same,CARBON DIOXIDE,[2],31.33 mmol/L
same,CHLORIDE,[2],100 MEQ/L
same,CHOLESTEROL,[2],76.33 mg/dL
same,CREATINE PHOSPHOKINASE,[2],598 u/L
same,CREATININE,[2],0.26 mg/dL
same,GLUCOSE,[2],165.33 mg/dL
same,LACTATE DEHYDROGENASE,[2],117 u/L
same,PHOSPHORUS,[2],11.5 mg/dL
same,POTASSIUM,[2],6.64 MEQ/L
same,SODIUM,[2],144.23 MEQ/L
same,TOTAL BILIRUBIN,[2],0.17 mg/dL
same,TOTAL PROTEIN,[2],5.87 G/DL
same,URIC ACID,[2],1.3 mg/dL
same,ABSOLUTE BASOPHIL,[3],0 CELLS/uL
same,ABSOLUTE EOSINOPHIL,[3],0 CELLS/uL
same,ABSOLUTE LYMPHOCYTE,[3],10993 CELLS/uL
same,ABSOLUTE MONOCYTE,[3],34 CELLS/uL
same,ABSOLUTE SEGMENTED NEUTROPHIL,[3],1339.67 CELLS/uL
same,BASOPHIL,[3],0%
same,EOSINOPHIL,[3],0%
same,ERYTHROCYTE COUNT,[3],5.96 x10E6/uL
same,HEMATOCRIT,[3],37.17%
same,HEMOGLOBIN,[3],14.47 G/DL
same,LEUKOCYTE COUNT,[3],12.37 x10E3/uL
same,LYMPHOCYTE,[3],88.67%
same,MEAN CORPUSCULAR HEMOGLOBIN,[3],24.27 pg
same,MEAN CORPUSCULAR HEMOGLOBIN CONCENTRATION,[3],38.97 G/DL
same,MEAN CORPUSCULAR VOLUME,[3],62.4 fL
same,MONOCYTE,[3],0.33%
same,NUCLEATED RED BLOOD CELLS,[3],0 /100WBC
same,PLATELET COUNT,[3],1496.67 x10E3/uL
same,ALANINE AMINOTRANSFERASE,[3],47.33 u/L
same,ALBUMIN,[3],4.57 G/DL
same,ALKALINE PHOSPHATASE,[3],338 u/L
same,ASPARTATE AMINOTRANSFERASE,[3],86.67 u/L
same,BLOOD UREA NITROGEN,[3],22 mg/dL
same,CARBON DIOXIDE,[3],32 mmol/L
same,CHLORIDE,[3],99 MEQ/L
same,CHOLESTEROL,[3],76 mg/dL
same,CREATINE PHOSPHOKINASE,[3],389.67 u/L
same,CREATININE,[3],0.21 mg/dL
same,GLUCOSE,[3],156.33 mg/dL
same,LACTATE DEHYDROGENASE,[3],197.67 u/L
same,PHOSPHORUS,[3],12.37 mg/dL
same,POTASSIUM,[3],6.51 MEQ/L
same,SODIUM,[3],142.77 MEQ/L
same,TOTAL BILIRUBIN,[3],0.17 mg/dL
same,TOTAL PROTEIN,[3],6.4 G/DL
same,URIC ACID,[3],2.33 mg/dL
same,ABSOLUTE BASOPHIL,[4],0 CELLS/uL
same,ABSOLUTE EOSINOPHIL,[4],126 CELLS/uL
same,ABSOLUTE LYMPHOCYTE,[4],16262 CELLS/uL
same,ABSOLUTE MONOCYTE,[4],538.67 CELLS/uL
same,ABSOLUTE SEGMENTED NEUTROPHIL,[4],2873.33 CELLS/uL
same,BASOPHIL,[4],0%
same,EOSINOPHIL,[4],0.67%
same,ERYTHROCYTE COUNT,[4],5.73 x10E6/uL
same,HEMATOCRIT,[4],35.13%
same,HEMOGLOBIN,[4],14.03 G/DL
same,LEUKOCYTE COUNT,[4],19.8 x10E3/uL
same,LYMPHOCYTE,[4],82.33%
same,MEAN CORPUSCULAR HEMOGLOBIN,[4],24.47 pg
same,MEAN CORPUSCULAR HEMOGLOBIN CONCENTRATION,[4],40 G/DL
same,MEAN CORPUSCULAR VOLUME,[4],61.27 fL
same,MONOCYTE,[4],2.67%
same,NUCLEATED RED BLOOD CELLS,[4],0 /100WBC
same,PLATELET COUNT,[4],1243.33 x10E3/uL
same,ALANINE AMINOTRANSFERASE,[4],47.33 u/L
same,ALBUMIN,[4],3.73 G/DL
same,ALKALINE PHOSPHATASE,[4],287.33 u/L
same,ASPARTATE AMINOTRANSFERASE,[4],77.33 u/L
same,BLOOD UREA NITROGEN,[4],29.67 mg/dL
same,CARBON DIOXIDE,[4],27.67 mmol/L
same,CHLORIDE,[4],99.33 MEQ/L
same,CHOLESTEROL,[4],72.33 mg/dL
same,CREATINE PHOSPHOKINASE,[4],467.33 u/L
same,CREATININE,[4],0.34 mg/dL
same,GLUCOSE,[4],139 mg/dL
same,LACTATE DEHYDROGENASE,[4],171.67 u/L
same,PHOSPHORUS,[4],10.27 mg/dL
same,POTASSIUM,[4],6.39 MEQ/L
same,SODIUM,[4],143.07 MEQ/L
same,TOTAL BILIRUBIN,[4],0.13 mg/dL
same,TOTAL PROTEIN,[4],6.03 G/DL
same,URIC ACID,[4],1.4 mg/dL
